According to ChEMBL document CHEMBL1909046, “DrugMatrix in vitro pharmacology data”:

Tests used:
[1] = target: T1, C-C chemokine receptor type 4 (Homo sapiens, UniProt P51679); format: cell membranes, Membrane; conditions: chem-1; further: in other assays of this panel Not Active means under 50% inhibition at 10 µM
T1 sequence (P51679 whole entry): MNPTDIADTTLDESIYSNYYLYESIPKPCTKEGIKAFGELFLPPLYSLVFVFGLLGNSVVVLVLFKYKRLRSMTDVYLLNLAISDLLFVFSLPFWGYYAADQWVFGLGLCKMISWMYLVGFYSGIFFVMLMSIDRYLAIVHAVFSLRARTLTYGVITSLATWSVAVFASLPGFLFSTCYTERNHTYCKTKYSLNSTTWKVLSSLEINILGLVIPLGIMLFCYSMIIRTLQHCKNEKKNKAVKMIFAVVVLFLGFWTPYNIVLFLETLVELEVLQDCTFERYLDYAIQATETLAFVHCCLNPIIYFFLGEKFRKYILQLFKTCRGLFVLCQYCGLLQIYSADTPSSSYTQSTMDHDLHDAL

[2] = target: T2, Cysteinyl leukotriene receptor 1 (Homo sapiens, UniProt Q9Y271); format: cell membranes, CHO-K1, Membrane; conditions: cho-k1; further: in other assays of this panel Not Active means under 50% inhibition at 10 µM
T2 sequence (Q9Y271 whole entry): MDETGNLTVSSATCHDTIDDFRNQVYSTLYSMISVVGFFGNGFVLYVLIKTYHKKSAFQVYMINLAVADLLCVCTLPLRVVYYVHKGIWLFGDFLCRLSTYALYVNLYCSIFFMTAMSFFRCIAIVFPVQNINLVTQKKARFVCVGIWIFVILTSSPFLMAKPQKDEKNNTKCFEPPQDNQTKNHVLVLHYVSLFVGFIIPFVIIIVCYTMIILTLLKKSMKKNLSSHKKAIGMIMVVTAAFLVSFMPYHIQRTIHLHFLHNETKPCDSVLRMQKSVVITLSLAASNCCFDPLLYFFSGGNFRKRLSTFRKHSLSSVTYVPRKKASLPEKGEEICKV

[3] = target: T3, Polyunsaturated fatty acid lipoxygenase ALOX15 (Oryctolagus cuniculus, UniProt P12530); test: biochemical; format: tissue-based, Reticulocytes; conditions: reticulocytes;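 further: inhibition of 15-lipoxygenase enzyme activity measured with linoleic acid as the substrate; in other assays of this panel Not Active means under 50% inhibition at 10 µM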
T3 sequence (P12530 whole entry): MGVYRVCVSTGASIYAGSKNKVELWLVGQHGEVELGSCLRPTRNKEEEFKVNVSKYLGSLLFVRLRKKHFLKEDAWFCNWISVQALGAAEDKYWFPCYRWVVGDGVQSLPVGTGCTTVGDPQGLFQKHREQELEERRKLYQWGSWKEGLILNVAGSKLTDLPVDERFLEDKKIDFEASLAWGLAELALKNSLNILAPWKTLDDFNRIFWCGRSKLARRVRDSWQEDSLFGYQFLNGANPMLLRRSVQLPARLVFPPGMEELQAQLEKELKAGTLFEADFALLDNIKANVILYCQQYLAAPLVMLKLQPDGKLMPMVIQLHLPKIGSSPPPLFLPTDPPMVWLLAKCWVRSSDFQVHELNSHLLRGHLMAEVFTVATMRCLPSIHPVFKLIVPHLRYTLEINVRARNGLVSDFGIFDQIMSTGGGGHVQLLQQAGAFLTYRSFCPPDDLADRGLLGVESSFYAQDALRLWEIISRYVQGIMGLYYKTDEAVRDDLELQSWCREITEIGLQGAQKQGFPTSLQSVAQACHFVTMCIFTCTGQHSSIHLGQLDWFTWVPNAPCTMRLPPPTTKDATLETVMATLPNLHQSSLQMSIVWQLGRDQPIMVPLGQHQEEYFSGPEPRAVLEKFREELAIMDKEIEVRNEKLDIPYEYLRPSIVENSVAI

Melanocortin receptor 5 = Melanocortin receptor 5 (Homo sapiens, UniProt P33032); format: cell membranes, HEK293, Membrane; conditions: hek293; further: in other assays of this panel Not Active means under 50% inhibition at 10 µM
Melanocortin receptor 5, sequence (P33032 whole entry): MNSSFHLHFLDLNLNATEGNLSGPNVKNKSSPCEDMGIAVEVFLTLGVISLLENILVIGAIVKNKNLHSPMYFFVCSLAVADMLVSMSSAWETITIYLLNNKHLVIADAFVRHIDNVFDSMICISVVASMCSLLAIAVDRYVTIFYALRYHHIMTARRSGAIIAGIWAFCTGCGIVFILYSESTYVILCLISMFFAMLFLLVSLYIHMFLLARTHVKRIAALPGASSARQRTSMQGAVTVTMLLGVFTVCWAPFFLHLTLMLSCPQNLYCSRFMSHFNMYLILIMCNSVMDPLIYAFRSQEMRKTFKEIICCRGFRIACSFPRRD

[4] = target: T4, Nitric oxide synthase, inducible (Mus musculus, UniProt P29477); parameters: species or system Escherichia coli
T4 sequence (P29477 whole entry): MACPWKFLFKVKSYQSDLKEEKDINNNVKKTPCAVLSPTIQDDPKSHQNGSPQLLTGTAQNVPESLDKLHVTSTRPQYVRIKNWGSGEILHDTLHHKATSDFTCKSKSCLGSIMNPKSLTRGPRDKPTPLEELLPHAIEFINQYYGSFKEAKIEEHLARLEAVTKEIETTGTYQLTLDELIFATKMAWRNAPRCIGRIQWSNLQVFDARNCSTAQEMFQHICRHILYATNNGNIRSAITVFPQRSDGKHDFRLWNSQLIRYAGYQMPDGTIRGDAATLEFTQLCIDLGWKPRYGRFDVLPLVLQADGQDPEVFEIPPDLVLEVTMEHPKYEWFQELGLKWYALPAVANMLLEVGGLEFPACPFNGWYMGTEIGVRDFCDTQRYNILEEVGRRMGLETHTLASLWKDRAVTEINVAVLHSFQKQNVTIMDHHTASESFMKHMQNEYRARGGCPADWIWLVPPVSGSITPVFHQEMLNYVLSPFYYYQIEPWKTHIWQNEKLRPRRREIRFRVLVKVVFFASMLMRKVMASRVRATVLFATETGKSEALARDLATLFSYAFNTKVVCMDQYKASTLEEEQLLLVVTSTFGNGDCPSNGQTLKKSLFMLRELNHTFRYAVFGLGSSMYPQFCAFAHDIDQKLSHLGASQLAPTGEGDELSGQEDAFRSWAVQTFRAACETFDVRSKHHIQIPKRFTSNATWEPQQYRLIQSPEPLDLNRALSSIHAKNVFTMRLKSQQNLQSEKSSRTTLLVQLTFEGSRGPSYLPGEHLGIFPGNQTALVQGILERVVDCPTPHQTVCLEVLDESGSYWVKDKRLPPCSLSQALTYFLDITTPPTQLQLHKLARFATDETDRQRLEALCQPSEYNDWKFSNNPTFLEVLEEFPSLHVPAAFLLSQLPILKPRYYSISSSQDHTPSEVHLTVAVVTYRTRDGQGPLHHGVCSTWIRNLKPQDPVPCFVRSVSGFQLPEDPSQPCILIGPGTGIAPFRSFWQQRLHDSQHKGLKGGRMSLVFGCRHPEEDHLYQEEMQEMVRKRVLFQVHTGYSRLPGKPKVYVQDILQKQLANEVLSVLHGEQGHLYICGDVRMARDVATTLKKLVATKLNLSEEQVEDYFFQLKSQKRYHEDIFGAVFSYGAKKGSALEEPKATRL

Mu-type opioid receptor = Mu-type opioid receptor (Homo sapiens, UniProt P35372); test: DRUGMATRIX: Opiate mu (OP3, MOP) radioligand binding (ligand: [3H] Diprenorphine); format: cell membranes, CHO-K1, Membrane; conditions: cho-k1; Not Active = under 50% inhibition at 10 µM
Mu-type opioid receptor, sequence (P35372 whole entry): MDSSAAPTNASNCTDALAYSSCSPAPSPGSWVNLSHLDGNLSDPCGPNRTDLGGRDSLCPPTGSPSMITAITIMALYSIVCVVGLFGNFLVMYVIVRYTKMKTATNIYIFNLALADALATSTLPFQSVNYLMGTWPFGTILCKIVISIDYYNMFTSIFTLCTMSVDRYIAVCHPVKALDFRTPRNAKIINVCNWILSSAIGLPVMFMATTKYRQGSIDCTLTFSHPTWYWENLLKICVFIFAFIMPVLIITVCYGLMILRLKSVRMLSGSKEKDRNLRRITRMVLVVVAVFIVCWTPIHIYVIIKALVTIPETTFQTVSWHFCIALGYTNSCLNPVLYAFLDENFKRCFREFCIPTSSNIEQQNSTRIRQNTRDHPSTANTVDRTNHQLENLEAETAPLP

[5] = DRUGMATRIX: Phorbol Ester radioligand binding (ligand: [3H] PDBu); format: cell membranes, Mus musculus, ICR, Brain, Membrane; conditions: Not Active = under 50% inhibition at 10 µM
[6] = target: Protein phosphatase 3 catalytic subunit alpha (Homo sapiens, UniProt Q08209); parameters: species or system Escherichia coli
[7] = DRUGMATRIX: Purinergic P2X radioligand binding (ligand: [3H] alpha, beta-Methylene-ATP); format: cell membranes, Oryctolagus cuniculus, New Zealand albino, Urinary bladder, Membrane; conditions: Not Active = under 50% inhibition at 10 µM

COc1ccc([C@@H]2Sc3ccccc3N(CCN(C)C)C(=O)[C@@H]2OC(C)=O)cc1 [DILTIAZEM]
Not Active: IC50 [1] | IC50 [2] | IC50 [3] | IC50 (Melanocortin receptor 5) | IC50 [4] | IC50 (Mu-type opioid receptor) | IC50 [5] | Ki [5] | IC50 [6] | IC50 [7] | Ki [7]

CCc1ccc(C(=O)C(C)CN2CCCCC2)cc1 (centres undefined) [EPERISONE]
Not Active: IC50 [1] | IC50 [2] | IC50 [3] | IC50 (Melanocortin receptor 5) | IC50 [4] | IC50 (Mu-type opioid receptor) | IC50 [5] | Ki [5] | IC50 [6] | IC50 [7] | Ki [7]

C=C1CC[C@H](O)C/C1=C/C=C1\CCC[C@]2(C)[C@@H]([C@H](C)/C=C/[C@H](C)C(C)C)CC[C@@H]12 [ERGOCALCIFEROL]
Not Active: IC50 [1] | IC50 [2] | IC50 [3] | IC50 (Melanocortin receptor 5) | IC50 [4] | IC50 (Mu-type opioid receptor) | IC50 [5] | Ki [5] | IC50 [6] | IC50 [7] | Ki [7]

CCc1cccc2c3c([nH]c12)C(CC)(CC(=O)O)OCC3 (centres undefined) [ETODOLAC]
Not Active: IC50 [1] | IC50 [2] | IC50 [3] | IC50 (Melanocortin receptor 5) | IC50 [4] | IC50 (Mu-type opioid receptor) | IC50 [5] | Ki [5] | IC50 [6] | IC50 [7] | Ki [7]

Cc1c(-c2ccccc2)oc2c(C(=O)OCCN3CCCCC3)cccc2c1=O [FLAVOXATE]
Not Active: IC50 [1] | IC50 [2] | IC50 [3] | IC50 (Melanocortin receptor 5) | IC50 [4] | IC50 (Mu-type opioid receptor) | IC50 [5] | Ki [5] | IC50 [6] | IC50 [7] | Ki [7]

Nc1nc(=O)[nH]cc1F [FLUCYTOSINE]
Not Active: IC50 [1] | IC50 [2] | IC50 [3] | IC50 (Melanocortin receptor 5) | IC50 [4] | IC50 (Mu-type opioid receptor) | IC50 [5] | Ki [5] | IC50 [6] | IC50 [7] | Ki [7]

O=C1OC2(c3ccc(O)cc3Oc3cc(O)ccc32)c2ccccc21 [FLUORESCEIN]
Not Active: IC50 [1] | IC50 [2] | IC50 [3] | IC50 (Melanocortin receptor 5) | IC50 [4] | IC50 (Mu-type opioid receptor) | IC50 [5] | Ki [5] | IC50 [6] | IC50 [7] | Ki [7]

CC(=O)[C@@]1(O)CC[C@H]2[C@@H]3C[C@H](C)C4=CC(=O)C=C[C@]4(C)[C@@]3(F)[C@@H](O)C[C@@]21C [FLUOROMETHOLONE]
Not Active: IC50 [1] | IC50 [2] | IC50 [3] | IC50 (Melanocortin receptor 5) | IC50 [4] | IC50 (Mu-type opioid receptor) | IC50 [5] | Ki [5] | IC50 [6] | IC50 [7] | Ki [7]

O=c1[nH]cc(F)c(=O)[nH]1 [FLUOROURACIL]
Not Active: IC50 [1] | IC50 [2] | IC50 [3] | IC50 (Melanocortin receptor 5) | IC50 [4] | IC50 (Mu-type opioid receptor) | IC50 [5] | Ki [5] | IC50 [6] | IC50 [7] | Ki [7]
